Source: US9156827B2, “Anticancer agent” (THE UNIVERSITY OF TOKYO, priority 2010, dated 2015)
Structures can show the parent of a compound that is named as a salt.

Columns and labels:
[1] = tested on: human acute myeloid leukemia MV4.11 cells; test: Cell proliferation-suppressing activity, fluorescence method (Alamar Blue assay); assay type: cell-based; details: 48 h, compound 1 μM, Alamar Blue assay two days after inoculation, Table 5
Description: Measurement of Cell Proliferation-Suppressing Activity (Fluorescence Method)
Each compound was added to a 96-well microtiter plate at a final concentration of 1 μM, then human acute myeloid leukemia MV4.11 cells (10^4 cells) were inoculated, and the Alamar Blue assay was performed two days after the inoculation (measurement of fluorescence: Ex. 535 nm, Em. 590 nm) to measure cell proliferation-suppressing activity.

pim-1 kinase = pim-1 kinase (Homo sapiens, UniProt P11309); test: Measurement of pim-1 kinase inhibitory activity (fluorescent substrate peptide, capillary electrophoresis); assay type: biochemical; details: 0.1 μM of each compound, 30 μM ATP, 1.5 μM substrate peptide, room temperature 2 hours
Description: Measurement of Pim-1 Kinase Inhibitory Activity
The result of the reaction was determined by quantifying the substrate and the phosphorylated reaction product separated by capillary electrophoresis based on difference in charges of the substances (EZ Reader II, Caliper Life Sciences, was used).

[2] = tested on: Human acute myeloid leukemia MV4-11 cells; test: Cell proliferation-suppressing activity, chromogenic method (MTT assay); assay type: cell-based; details: 72 h, compound 1 μM, MTT assay three days after addition, Table 4
Description: Measurement of Cell Proliferation-Suppressing Activity (Chromogenic Method)
Human acute myeloid leukemia MV4-11 cells (10^4 cells) were inoculated on a 96-well microtiter plate, each compound was added at a final concentration of 1 μM 24 hours afterward, and MTT assay was performed three days after the addition of the compound to measure the cell proliferation-suppressing activity.

Sequence of pim-1 kinase (P11309 whole entry): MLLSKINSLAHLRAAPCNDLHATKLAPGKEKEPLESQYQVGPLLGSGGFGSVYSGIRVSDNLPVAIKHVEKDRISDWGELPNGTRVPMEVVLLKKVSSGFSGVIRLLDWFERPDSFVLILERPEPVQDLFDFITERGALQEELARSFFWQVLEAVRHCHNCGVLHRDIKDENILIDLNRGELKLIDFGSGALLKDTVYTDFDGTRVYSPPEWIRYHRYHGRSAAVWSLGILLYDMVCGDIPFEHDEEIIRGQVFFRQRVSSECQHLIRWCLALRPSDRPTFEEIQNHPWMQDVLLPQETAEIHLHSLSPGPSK

Compound | inhibition at 0.1 µM (pim-1 kinase; Table 1) [%] | inhibition at 0.1 µM (pim-1 kinase; Table 2) [%] | inhibition at 1 µM [1] [%] | inhibition at 1 µM [2] [%]
O=C1/C(=C/c2c[nH]c3ccccc23)Oc2c1cc(Cl)c(O)c2CN1CCNCC1 [Compound A12, (Z)-2-[(1H-Indol-3-yl)methylene]-5-chloro-6-hydroxy-7-(piperazin-1-ylmethyl)benzofuran-3(2H)-one dihydrochloride] | 81 | – | 87 | –
Cc1ccc2[nH]cc(/C=C3\Oc4c(ccc(O)c4CN4CCNCC4)C3=O)c2c1 [Compound A18, (Z)-6-Hydroxy-2-[(5-methyl-1H-indol-3-yl)methylene]-7-(piperazin-1-ylmethyl)benzofuran-3(2H)-one dihydrochloride] | 95 | – | 71 | –
Nc1ccc2c(/C=C3\Oc4c(ccc(O)c4CN4CCNCC4)C3=O)c[nH]c2c1 [Compound A25, (Z)-2-[(6-Amino-1H-indol-3-yl)methylene]-6-hydroxy-7-(piperazin-1-ylmethyl)benzofuran-3(2H)-one trihydrochloride] | 83 | – | 20 | –
Cc1ccc(S(=O)(=O)n2cc(/C=C3\Oc4c(ccc(O)c4CN4CCNCC4)C3=O)c3ccccc32)cc1 [Compound A33, (Z)-6-Hydroxy-7-(piperazin-1-ylmethyl)-2-[(1-tosyl-1H-indol-3-yl)methylene]benzofuran-3(2H)-one dihydrochloride] | 94 | – | 32 | –
O=C1/C(=C/c2cn(S(=O)(=O)c3ccc(C(F)(F)F)cc3)c3ccccc23)Oc2c1ccc(O)c2CN1CCNCC1 [Compound A34, (Z)-6-Hydroxy-7-(piperazin-1-ylmethyl)-2-({1-[4-(trifluoromethyl)phenylsulfonyl]-1H-indol-3-yl}methylene)benzofuran-3(2H)-one dihydrochloride] | 98 | – | 58 | –
O=C1/C(=C/c2cn(S(=O)(=O)c3ccc(Cl)cc3)c3ccccc23)Oc2c1ccc(O)c2CN1CCNCC1 [Compound A35, (Z)-{[1-(4-Chlorophenylsulfonyl)-1H-indol-3-yl]methylene}-6-hydroxy-7-(piperazin-1-ylmethyl)benzofuran-3(2H)-one dihydrochloride] | 96 | – | 48 | –
O=C1/C(=C/c2cn(S(=O)(=O)c3ccccc3Cl)c3ccccc23)Oc2c1ccc(O)c2CN1CCNCC1 [Compound A36, (Z)-2-{[1-(2-Chlorophenylsulfonyl)-1H-indol-3-yl]methylene}-6-hydroxy-7-(piperazin-1-ylmethyl)benzofuran-3(2H)-one dihydrochloride] | 99 | – | 39 | –
O=C1/C(=C/c2cn(S(=O)(=O)c3c(Cl)cccc3Cl)c3ccccc23)Oc2c1ccc(O)c2CN1CCNCC1 [Compound A37, (Z)-2-{[1-(2,6-Dichlorophenylsulfonyl)-1H-indol-3-yl]methylene}-6-hydroxy-7-(piperazin-1-ylmethyl)benzofuran-3(2H)-one dihydrochloride] | 99 | – | 55 | –
O=C1/C(=C/c2cn(S(=O)(=O)c3cccc(Cl)c3Cl)c3ccccc23)Oc2c1ccc(O)c2CN1CCNCC1 [Compound A38, (Z)-2-{[1-(2,3-Dichlorophenylsulfonyl)-1H-indol-3-yl]methylene}-6-hydroxy-7-(piperazin-1-ylmethyl)benzofuran-3(2H)-one dihydrochloride] | 99 | – | 43 | –
O=C1/C(=C/c2cn(S(=O)(=O)c3ccc(Cl)cc3Cl)c3ccccc23)Oc2c1ccc(O)c2CN1CCNCC1 [Compound A39, (Z)-2-{[1-(2,4-Dichlorophenylsulfonyl)-1H-indol-3-yl]methylene}-6-hydroxy-7-(piperazin-1-ylmethyl)benzofuran-3(2H)-one dihydrochloride] | 99 | – | 51 | –
O=C1/C(=C/c2c[nH]c3ncccc23)Oc2c1ccc(O)c2CN1CCOCC1 [Compound A44, (Z)-2-[(1H-Pyrrolo[2,3-b]pyridin-3-yl)methylene]-6-hydroxy-7-(morpholinomethyl)benzofuran-3(2H)-one] | 27 | – | 46 | –
O=C1CN(Cc2c(O)ccc3c2O/C(=C\c2c[nH]c4ncccc24)C3=O)CCN1 [Compound A45, (Z)-4-({2-[(1H-Pyrrolo[2,3-b]pyridin-3-yl)methylene]-6-hydroxy-3-oxo-2,3-dihydrobenzofuran-7-yl}methyl)piperazin-2-one] | 83 | – | 15 | –
CCCCOc1ccc2c(c1CN1CCNCC1)O/C(=C\c1n[nH]c3ccccc13)C2=O [Compound B24, (Z)-2-[(1H-Indazol-3-yl)methylene]-6-butoxy-7-(piperazin-1-ylmethyl)benzofuran-3(2H)-one] | – | 88 | – | 89
CC(C)COc1ccc2c(c1CN1CCNCC1)O/C(=C\c1n[nH]c3ccccc13)C2=O [Compound B26, (Z)-2-[(1H-Indazol-3-yl)methylene]-6-isobutoxy-7-(piperazin-1-ylmethyl)benzofuran-3(2H)-one] | – | 78 | – | 86

The next lines start with results.

inhibition at 0.1 µM (pim-1 kinase; Table 1) [%] | inhibition at 0.1 µM (pim-1 kinase; Table 2) [%] | Compound | inhibition at 1 µM [1] [%] | inhibition at 1 µM [2] [%]
– | 97 | COCCOc1ccc2c(c1CN1CCNCC1)O/C(=C\c1n[nH]c3ccccc13)C2=O [Compound B21, (Z)-2-[(1H-Indazol-3-yl)methylene]-6-(2-methoxyethoxy)-7-(piperazin-1-ylmethyl)benzofuran-3(2H)-one] | – | 94
– | 96 | CCOc1ccc2c(c1CN1CCNCC1)O/C(=C\c1n[nH]c3ccccc13)C2=O [Compound B22, (Z)-2-[(1H-Indazol-3-yl)methylene]-6-ethoxy-7-(piperazin-1-ylmethyl)benzofuran-3(2H)-one] | – | 90
– | 93 | CCCOc1ccc2c(c1CN1CCNCC1)O/C(=C\c1n[nH]c3ccccc13)C2=O [Compound B23, (Z)-2-[(1H-Indazol-3-yl)methylene]-7-(piperazin-1-ylmethyl)-6-propoxybenzofuran-3(2H)-one] | – | 90
– | 97 | CC(C)Oc1ccc2c(c1CN1CCNCC1)O/C(=C\c1n[nH]c3ccccc13)C2=O [Compound B25, (Z)-2-[(1H-Indazol-3-yl)methylene]-6-isopropoxy-7-(piperazin-1-ylmethyl)benzofuran-3(2H)-one] | – | 91
– | 91 | O=C1/C(=C/c2n[nH]c3ccccc23)Oc2c1ccc(OCC1CC1)c2CN1CCNCC1 [Compound B27, (Z)-2-[(1H-Indazol-3-yl)methylene]-6-(cyclopropylmethoxy)-7-(piperazin-1-ylmethyl)benzofuran-3(2H)-one] | – | 89
– | 82 | O=C1/C(=C/c2n[nH]c3ccccc23)Oc2c1ccc(OC1CCOCC1)c2CN1CCNCC1 [Compound B29, (Z)-2-[(1H-Indazol-3-yl)methylene]-7-(piperazin-1-ylmethyl)-6-(tetrahydro-2H-pyran-4-yloxy)benzofuran-3(2H)-one] | – | 90
– | 89 | O=C1/C(=C/c2n[nH]c3ccccc23)Oc2c1ccc(OCCc1ccccc1)c2CN1CCNCC1 [Compound B30, (Z)-2-[(1H-Indazol-3-yl)methylene]-6-phenethoxy-7-(piperazin-1-ylmethyl)benzofuran-3(2H)-one] | – | 78
– | 95 | O=C1/C(=C/c2n[nH]c3ccccc23)Oc2c1ccc(OCCOc1ccccc1)c2CN1CCNCC1 [Compound B31, (Z)-2-((1H-Indazol-3-yl)methylene)-6-(2-phenoxyethoxy)-7-(piperazin-1-ylmethyl)benzofuran-3(2H)-one] | – | 84
– | 97 | COc1ccc2c(c1OC1CCNCC1)O/C(=C\c1n[nH]c3ccccc13)C2=O [Compound B35, (Z)-2-[(1H-Indazol-3-yl)methylene]-6-methoxy-7-(piperidin-4-yloxy)benzofuran-3(2H)-one] | – | 95
– | 85 | COc1ccc2c(c1C(=O)N1CCNCC1)O/C(=C\c1n[nH]c3ccccc13)C2=O [Compound B37, (Z)-2-[(1H-Indazol-3-yl)methylene]-6-methoxy-7-(piperazine-1-carbonyl)benzofuran-3(2H)-one] | – | 76
– | 87 | COc1cc2c(c(CN3CCNCC3)c1OC)O/C(=C\c1n[nH]c3ccccc13)C2=O [Compound B38, (Z)-2-[(1H-Indazol-3-yl)methylene]-5,6-dimethoxy-7-(piperazin-1-ylmethyl)benzofuran-3(2H)-one] | – | 95
– | 95 | O=C1/C(=C/c2n[nH]c3ccccc23)Oc2c1cc1c(c2CN2CCNCC2)OCO1 [Compound B39] | – | 92
